# Data published in patent US20130190399A1, “Synthesis and use of omega-3 and omega 6 very long chain polyunsaturated fatty acids (VLC-PUFA)” (MARTEK BIOSCIENCES CORPORATION, priority 2009, published 2013).
# Key:
# Assay type in all cases: cell-based, rat
# [1] = tested on: primary hippocampal neurons; assay: Hypoxia, cell death (propidium iodide) after VLC-PUFA pretreatment; conditions: 48 h hypoxia, O2 ≦0.3%, tested 0.1-30 μM
# Experimental: Primary hippocampal neurons were harvested from embryonic day 17-18 rat fetuses using a modified version of previously described protocols (Banker and Cowan, 1977; Brewer et al., 1993) that preferentially select for neuronal growth over glial growth (Brewer, 1997). Pregnant dams were anesthetized via isoflurane on gestational day 18, and the rat fetuses were harvested by Cesarean section. Brains were removed and placed in ice-cold (4° C.) Hibernate EB (Brain Bits, Inc., Springfield, Il, USA) until all of the hippocampi were dissected. During the dissection, brain tissue was kept on an ice-cold block in Hibernate E solution. Dissected hippocampal tissue was washed once in room-temperature Hibernate E (without calcium, Brain Bits, Inc.) to remove divalent cations, and then incubated at 37° C. in a solution consisting of 0.17% trypsin in Hybernate E (without calcium) for 10 minutes. The tissue was subsequently washed once with ice-cold Hybernate E (without calcium) containing 15% fetal bovine serum (Atlas Biologicals, Fort Collins, Colo., USA) and then dissociated by trituration in the same media. Dispersed cell suspensions were centrifuged for 2 minutes at 200 g at 4° C., and resuspended in ice-cold Neurobasal medium (Invitrogen, Carlsbad, Calif., USA) supplemented with 1×B27 (Invitrogen), 100 μg/ml penicillin-streptomycin (Invitrogen), 0.5 mM L-glutamine (Invitrogen) and 0.025 mM L-glutamate (Sigma, St. Louis, Mo., USA). Viable cell number and concentration were determined by trypan blue exclusion and counted using an automated cell counter (Countess, Invitrogen). Cell suspensions were diluted in warm Neurobasal/B27 media and plated at a density of 30,000 cells per well in 96-well plates (Falcon Optilux plates, BD Biosciences, Bedford, Mass., USA) coated with laminin (Sigma) and poly-D-lysine (Sigma). Cultures were maintained in a temperature- (37° C.), humidity- (−100%), and gas- (5% CO2, 9% O2) controlled incubator. Half of the media was removed and replaced with fresh media every other day. […]
# [2] = tested on: primary hippocampal neurons; assay: Mitochondrial health (TMRE) after glutamate-induced neurotoxicity; conditions: for EC50: Rattus norvegicus, Hippocampal neuron, 48 h pretreatment, L-glutamic acid 50 μM 60 min, assayed 24 h later, read-out: half-maximal effective concentration (EC50), increase of mitochondrial health after glutamate; for concentrations at which mitochondrial health after glutamate was significantly increased: tested 0.1-30 μM, ANOVA/Tukey vs injured vehicle control
# Experimental: (§1) Primary hippocampal neurons were harvested from embryonic day 17-18 rat fetuses using a modified version of previously described protocols (Banker and Cowan, 1977; Brewer et al., 1993) that preferentially select for neuronal growth over glial growth (Brewer, 1997). Pregnant dams were anesthetized via isoflurane on gestational day 18, and the rat fetuses were harvested by Cesarean section. Brains were removed and placed in ice-cold (4° C.) Hibernate EB (Brain Bits, Inc., Springfield, Il, USA) until all of the hippocampi were dissected. During the dissection, brain tissue was kept on an ice-cold block in Hibernate E solution. Dissected hippocampal tissue was washed once in room-temperature Hibernate E (without calcium, Brain Bits, Inc.) to remove divalent cations, and then incubated at 37° C. in a solution consisting of 0.17% trypsin in Hybernate E (without calcium) for 10 minutes. The tissue was subsequently washed once with ice-cold Hybernate E (without calcium) containing 15% fetal bovine serum (Atlas Biologicals, Fort Collins, Colo., USA) and then dissociated by trituration in the same media. Dispersed cell suspensions were centrifuged for 2 minutes at 200 g at 4° C., and resuspended in ice-cold Neurobasal medium (Invitrogen, Carlsbad, Calif., USA) supplemented with 1×B27 (Invitrogen), 100 μg/ml penicillin-streptomycin (Invitrogen), 0.5 mM L-glutamine (Invitrogen) and 0.025 mM L-glutamate (Sigma, St. Louis, Mo., USA). Viable cell number and concentration were determined by trypan blue exclusion and counted using an automated cell counter (Countess, Invitrogen). Cell suspensions were diluted in warm Neurobasal/B27 media and plated at a density of 30,000 cells per well in 96-well plates (Falcon Optilux plates, BD Biosciences, Bedford, Mass., USA) coated with laminin (Sigma) and poly-D-lysine (Sigma). Cultures were maintained in a temperature- (37° C.), humidity- (−100%), and gas- (5% CO2, 9% O2) controlled incubator. Half of the media was removed and replaced with fresh media every other day. All cultures were maintained for 3 days in vitro (DIV) in glutamate-containing media and then maintained an additional 7 DIV (glutamate neurotoxicity experiments) or 8 DIV (hypoxia) in Neurobasal/B27 media without glutamate.
# (§2) Very long-chain polyunsaturated fatty acids (VLCPUFAs; 34:6n3, 34:5n3, 28:6n3, 28:5n3, and 28:4n6) were obtained as the free fatty acid and were stored at −20° C. until use. Each VLC-PUFA was dissolved in methanol to an initial concentration of 100 mM and then diluted serially in methanol to obtain 1000× stocks for each concentration tested. These were diluted further in media to obtain the appropriate concentration within the culture wells (final concentrations of 30 μM, 10 μM, 3 μM, 1 μM, 0.3 μM, and 0.1 μM). Controls received methanol similarly diluted in media (final concentration 0.1%). The VLC-PUFAs were added to the cultures 48 hours prior to glutamate insult or hypoxia exposure (described below), and a 50% media change occurred immediately prior to hypoxia exposure or immediately following glutamate exposure.
# Cultures were treated with L-glutamic acid (50 μM, pH 7.0) for 60 minutes followed by a complete media change containing the appropriate concentrations of VLC-PUFAs. Cells were assayed for viability and mitochondrial health 24 hours after the glutamate treatment.
# Following glutamate exposure or hypoxia, cultures were aspirated with a 96-well plate washer (BioTek, Winooski, Vt., USA) and incubated for 15 minutes at 37° C. with phenol-free Neurobasal media (Invitrogen) containing one of two dye mixtures: 1) Hoechst dye (1:2000 of a 10 μg/ml solution, Invitrogen) and propidium iodide (PI; 1:500 of a 1 μg/ml solution; Invitrogen), or 2) Hoechst dye and tetramethylrhodamine ethyl ester (TMRE; 100 nM; Invitrogen). These dyes identify total cells (Hoechst), dying or dead cells (PI), and functional mitochondria (TMRE). […]
# [3] = tested on: primary hippocampal neurons; assay: Glutamate neurotoxicity, cell death (propidium iodide) after VLC-PUFA pretreatment; conditions: for IC50: Rattus norvegicus, Hippocampal neuron, 48 h pretreatment, L-glutamic acid 50 μM 60 min, assayed 24 h later, read-out: half-maximal inhibitory concentration (IC50), inhibition of cell death due to glutamate exposure; for concentrations at which cell death due to glutamate exposure was significantly inhibited: tested 0.1-30 μM, ANOVA/Tukey vs injured vehicle control, p<0.05
# Experimental: as §1, §2
# Cultures were treated with L-glutamic acid (50 μM, pH 7.0) for 60 minutes followed by a complete media change containing the appropriate concentrations of VLC-PUFAs. Cells were assayed for viability and mitochondrial health 24 hours after the glutamate treatment. […]
# [4] = tested on: primary hippocampal neurons; assay: Mitochondrial health (TMRE) after hypoxia; conditions: 48 h hypoxia, O2 ≦0.3%; tested 0.1-30 μM
# Experimental: Primary hippocampal neurons were harvested from embryonic day 17-18 rat fetuses using a modified version of previously described protocols (Banker and Cowan, 1977; Brewer et al., 1993) that preferentially select for neuronal growth over glial growth (Brewer, 1997). Pregnant dams were anesthetized via isoflurane on gestational day 18, and the rat fetuses were harvested by Cesarean section. Brains were removed and placed in ice-cold (4° C.) Hibernate EB (Brain Bits, Inc., Springfield, Il, USA) until all of the hippocampi were dissected. During the dissection, brain tissue was kept on an ice-cold block in Hibernate E solution. Dissected hippocampal tissue was washed once in room-temperature Hibernate E (without calcium, Brain Bits, Inc.) to remove divalent cations, and then incubated at 37° C. in a solution consisting of 0.17% trypsin in Hybernate E (without calcium) for 10 minutes. The tissue was subsequently washed once with ice-cold Hybernate E (without calcium) containing 15% fetal bovine serum (Atlas Biologicals, Fort Collins, Colo., USA) and then dissociated by trituration in the same media. […] Viable cell number and concentration were determined by trypan blue exclusion and counted using an automated cell counter (Countess, Invitrogen). […]
SMILES,effect on hypoxia-induced cell death (in words) [1],EC50 [2],concentrations at which mitochondrial health after glutamate was significantly increased [2],IC50 [3],concentrations at which cell death due to glutamate exposure was significantly inhibited [3],concentrations at which cell death due to hypoxia was significantly inhibited ([1]; 48 h pretreatment),effect on mitochondrial health after hypoxia (in words) [4]
CC/C=C\C/C=C\C/C=C\C/C=C\C/C=C\C/C=C\CCCCCCCCC(=O)O [28:6n3],did not inhibit hypoxia-induced cell death at any concentration tested,0.17 µM,≥ 3.0 µM,0.21 µM,≥ 0.3 µM,–,–
CC/C=C\C/C=C\C/C=C\C/C=C\C/C=C\CCCCCCCCCCCCCCCCCC(=O)O [34:5n3],"exhibited a main effect of treatment, but only one concentration (0.3 μM) approached a significant difference when compared to controls",0.68 µM,3.0 µM,0.69 µM,–,–,–
CC/C=C\C/C=C\C/C=C\C/C=C\C/C=C\C/C=C\CCCCCCCCCCCCCCC(=O)O [34:6n3],–,0.25 µM,≥ 0.3 µM,1.07 µM,≥ 3.0 µM,1.0 µM,did not significantly alter mitochondrial health at the concentrations tested
